Drawing on US10022412B2, “Composition for preventing or alleviating periodontal diseases, containing, as active ingredient, mangosteen extract or α- or γ-mangosteen” (Medi Bio Lab. co., Ltd., priority 2014, dated 2018), this text covers MIC for two compounds.

The experiment deals with Streptococcus mutans ATCC 25175. The experiment in a line: MIC test for Streptococcus mutans (NCCLS). It is filed as cell-based. The source says: Generally there are minimum inhibitory concentration (hereinafter, referred to MIC) test and time-kill assay test as test methods that become the standard for judging utility of antibiotics, when a new antibiotics is developed.
MIC TEST is a test method deciding minimum inhibitory concentration where bacteria cannot grow well, namely minimal usage of antibiotics for obtaining purposed antibacterial efficacy, and Time-Kill assay test is a test method deciding usage of antibiotics that can maintain purposed efficacy for certain time range. Each test was performed, in order to test whether mangosteem extracts have proliferation inhibiting efficacy against Streptocccus Mutans (Streptocccus Mutans ATCC […]) to a certain degree.
MIC test for Streptococcus mutans (Streptococcus mutans ATCC 25175) was progressed according to the American clinical test standard method, NCCLS (National Committee for Clinical Laboratory Standards). To do comparative test of antibacterial ability of mangosteen extracts against Streptococcus mutans, after preparing each analysis sample as shown in the following table 5, that is the concentration of each analysis sample was 0, 1, 2, 3, 4, 5, 6, 7, 8, 9 and 10 ul, and the concentration of used Streptococcus mutans bacteria finally became 1×10^5 at the ratio of 50% by weight, and the concentration of DMSO (dimethyl sulfoxide) used as an analysis sample solvent finally became 1% by weight, and BHI medium (Brain heart infusion: Peptic Digest of Animal tissue, Sodium Chloride, Dextrose, Pancreatic Digest of Gelation, Disodium Phosphate, Final PH7.4+-0.2; Difco Company) was added for the remaining 40% by weight, they were used for the test. […]
After adding the samples in a microtube (duplicate) and culturing at 37° C. for 24 hrs, growth inhibit ion degree was observed by measuring absorbance at 500 nm.

Converted amounts (≈) assume the structure as drawn. Where two headings read alike, the source gives them in different places.

Turning to `COc1c(O)cc2oc3cc(O)c(CC=C(C)C)c(O)c3c(=O)c2c1CC=C(C)C` [Alpha-mangosteen, alpha-mangosteen], the MIC reads like this: (S. mutans ATCC 25175, 37° C. 24 hrs, absorbance 500 nm) 1.0(ug/ml); (Streptococcus mutans, ATCC25175, S. mutans ATCC 25175, 37° C. 24 hrs, absorbance 500 nm, read-out: MIC) 1 µg/mL (≈ 2.44 µM).
On to `CC(C)=CCc1c(O)cc2oc3cc(O)c(O)c(CC=C(C)C)c3c(=O)c2c1O` [Gamma-mangosteen, gamma-mangosteen], for which 4 µg/mL (≈ 10.1 µM) was the least that counted as inhibitory (Streptococcus mutans, ATCC25175, 24 h) (MIC).
